Measured values taken from US4803275A, “2-oxo-5-methyl-6-[4-heptene]-2H-pyrano[3,2-c]pyridine” (Takeda Chemical Industries, Ltd., priority 1986, dated 1989).
In brackets after ≈: the same amount, converted by molar mass.

Experiments:
[1] = tested on: synthesis of fatty acid (rat liver homogenates); experiment: Inhibitory activity of the synthesis of fatty acid (rat liver homogenates, 1-14C-acetate); assay type: biochemical, rat (SD-strain); details: vs. no addition of the inhibiting agent, 37° C., 60 min
Protocol: Determination of the Inhibitory activity of the synthesis of fatty acid was conducted by using homogenates prepared from rat livers. Preparation of the rat liver homogenates, composition of the reaction solution for determination of inhibitory activity and method of the determination were in accordance with the method by J. Iliffe et al. described on "Biochemical Journal" 91, 369 (1964) and the method by T. Kariya et al. described on "Biochemical and Biophysical Research Communications" 80, 1022 (1978). More specifically, SD-strain male rats (6-week old) had been fasted for 2 days and then refed for 24 hours. They were killed by blood letting. The livers were then removed immediately, to which was added a 0.25M sucrose solution containing 2 mM EDTA, 5 mM nicotinamide and 1 mM 2-mercaptoethanol so that the final volume of the solution may be 4 ml relative to 1 g of the wet weight of the livers. […]
Into a 10 ml flask containing 1.85 ml of a reaction mixture consisting of 45 mM of tris-HCl buffer (pH 7.4), 10 mM of KHCO3, 4 mM of MgCl2, 45 mM of KCl, 5 mM of K2 HPO4, 15 mM of potassium citrate, 1 mM of NADP, 2 mM of ATP, 5 mM of glucose-6-phosphate, 0.4 mM of coenzyme A, 5 mM of dithiothreitol and 0.5 ml of the enzyle solution, was blown a mixture gas (95% O2 :5% CO2). […] The radio-activity extracted into the petroleum ether layer was measured.

Escherichia coli K 12 = experiment: Antimicrobial activity; assay type: cell-based; details: K12, TSA medium containing 1% glucose, read-out: Minimum Inhibitory Concentration (MIC)
[2] = tested on: Proteus vulgaris IFO 3045; experiment: Antimicrobial activity; assay type: cell-based; details: IFO3045, TSA medium containing 1% glucose, read-out: Minimum Inhibitory Concentration (MIC)
[3] = tested on: Pseudomonas aeruginosa IFO 3080; experiment: Antimicrobial activity; assay type: cell-based; details: IFO3080, TSA medium containing 1% glucose, read-out: Minimum Inhibitory Concentration (MIC)
[4] = tested on: Staphylococcus aureus FDA 209 P; experiment: Antimicrobial activity; assay type: cell-based; details: FDA209, TSA medium containing 1% glucose, read-out: Minimum Inhibitory Concentration (MIC)
[5] = tested on: Bacillus subtilis PCI 219; experiment: Antimicrobial activity; assay type: cell-based; details: PCI219, TSA medium containing 1% glucose, read-out: Minimum Inhibitory Concentration (MIC)
Bacillus cereus IFO 3514 = experiment: Antimicrobial activity; assay type: cell-based; details: IFO3514, TSA medium containing 1% glucose, read-out: Minimum Inhibitory Concentration (MIC)
[6] = tested on: Candida albicans IFO 0583; experiment: Antimicrobial activity; assay type: cell-based; details: IFO0583, TSA medium containing 1% glucose, read-out: Minimum Inhibitory Concentration (MIC)
Candida krusei IFO 1395 = experiment: Antimicrobial activity; assay type: cell-based; details: Pichia kudriavzevii, IFO1395, TSA medium containing 1% glucose, read-out: Minimum Inhibitory Concentration (MIC)
[7] = tested on: Candida parakrusei IFO 0640; experiment: Antimicrobial activity; assay type: cell-based; details: IFO0640, TSA medium containing 1% glucose, read-out: Minimum Inhibitory Concentration (MIC)
Candida utilis IFO 0619 = experiment: Antimicrobial activity; assay type: cell-based; details: Williopsis jadinii, IFO0619, TSA medium containing 1% glucose, read-out: Minimum Inhibitory Concentration (MIC)
[8] = tested on: Candida parapsilosis IFO 1396; experiment: Antimicrobial activity; assay type: cell-based; details: Lodderomyces parapsilosis, IFO1396, TSA medium containing 1% glucose, read-out: Minimum Inhibitory Concentration (MIC)
[9] = tested on: Candida tropicalis IFO 0006; experiment: Antimicrobial activity; assay type: cell-based; details: IFO0006, TSA medium containing 1% glucose, read-out: Minimum Inhibitory Concentration (MIC)
[10] = tested on: Saccharomyces cerevisiae IFO 0209; experiment: Antimicrobial activity; assay type: cell-based; details: IFO0209, TSA medium containing 1% glucose, read-out: Minimum Inhibitory Concentration (MIC)
[11] = tested on: Rhodotorula rubra IFO 0907; experiment: Antimicrobial activity; assay type: cell-based; details: IFO0907, TSA medium containing 1% glucose, read-out: Minimum Inhibitory Concentration (MIC)
[12] = tested on: Cryptococcus neoformans IFO 0410; experiment: Antimicrobial activity; assay type: cell-based; details: IFO0410, TSA medium containing 1% glucose, read-out: Minimum Inhibitory Concentration (MIC)
[13] = tested on: Penicillium chrysogenum IFO 4626; experiment: Antimicrobial activity; assay type: cell-based; details: IFO4626, TSA medium containing 1% glucose, read-out: Minimum Inhibitory Concentration (MIC)
[14] = tested on: Aspergillus niger IFO 4066; experiment: Antimicrobial activity; assay type: cell-based; details: IFO4066, TSA medium containing 1% glucose, read-out: Minimum Inhibitory Concentration (MIC)
[15] = tested on: Trichophyton mentagrophytes IFO 7522; experiment: Antimicrobial activity; assay type: cell-based; details: IFO7522, TSA medium containing 1% glucose, read-out: Minimum Inhibitory Concentration (MIC)
[16] = tested on: Trichophyton rubrum IFO 5467; experiment: Antimicrobial activity; assay type: cell-based; details: IFO5467, TSA medium containing 1% glucose, read-out: Minimum Inhibitory Concentration (MIC)
Pyricularia oryzae P-18 = experiment: microbe, parasite or virus in culture; assay type: cell-based; details: P18, read-out: Minimum Inhibitory Concentration (MIC)
[17] = Acute toxicity, single intraperitoneal dose in mice; details: mouse, in vivo, ip
Solubility = assay type: physicochemical

Question: With CCC/C=C/CCC1Oc2cc[nH]c(=O)c2C=C1C (stereo not drawn) [FA-4283] as the compound, how does the “inhibitory activity of the synthesis of fatty acid” value ([1]; 5×10^-4 M) read?
Answer: Its value is 97%.

Question: And the “inhibition of the synthesis of fatty acid” value ([1]; 10^-3 M)?
Answer: The value was 98%.

Question: And the MIC (Escherichia coli K 12)?
Answer: The MIC was > 100 µg/mL.

Question: And the MIC [2]?
Answer: Its MIC is > 100 µg/mL.

Question: What about the MIC [3] of the same compound?
Answer: The MIC was > 100 µg/mL.

Question: What about the MIC [4] of the same compound?
Answer: Its MIC is > 100 µg/mL.

Question: And the MIC [5]?
Answer: Its MIC is > 100 µg/mL.

Question: And the MIC (Bacillus cereus IFO 3514)?
Answer: The MIC was > 100 µg/mL.

Question: What about the MIC [6] of the same compound?
Answer: Its MIC is 3.13 µg/mL (≈ 12.1 µM).

Question: What about the MIC (Candida krusei IFO 1395) of the same compound?
Answer: The MIC was > 100 µg/mL.

Question: What about the MIC [7] of the same compound?
Answer: The MIC was > 100 µg/mL.

Question: And the MIC (Candida utilis IFO 0619)?
Answer: Its MIC is 3.13 µg/mL (≈ 12.1 µM).

Question: What about the MIC [8] of the same compound?
Answer: The MIC was > 100 µg/mL.

Question: And the MIC [9]?
Answer: Its MIC is 50 µg/mL (≈ 193 µM).

Question: What about the MIC [10] of the same compound?
Answer: The MIC was > 100 µg/mL.

Question: And the MIC [11]?
Answer: Its MIC is 0.39 µg/mL (≈ 1.5 µM).

Question: And the MIC [12]?
Answer: Its MIC is 25 µg/mL (≈ 96.4 µM).

Question: And the MIC [13]?
Answer: Its MIC is > 100 µg/mL.

Question: And the MIC [14]?
Answer: The MIC was > 100 µg/mL.

Question: What about the MIC [15] of the same compound?
Answer: The MIC was 6.25 µg/mL (≈ 24.1 µM).

Question: What about the MIC [16] of the same compound?
Answer: The MIC was 6.25 µg/mL (≈ 24.1 µM).

Question: And the MIC (Pyricularia oryzae P-18)?
Answer: The MIC was 3.18 µg/mL (≈ 12.3 µM).

Question: What about the LD50 [17] of the same compound?
Answer: Its LD50 is ≥ 400 mg/kg.

Question: What about the Solubility (Solubility; chloroform) of the same compound?
Answer: The Solubility was “readily soluble”.

Question: What about the Solubility (Solubility; diethyl ether) of the same compound?
Answer: The Solubility was “soluble”.

Question: And the Solubility (Solubility; dimethyl sulfoxide)?
Answer: The Solubility was “readily soluble”.

Question: What about the Solubility (Solubility; dimethyl-formamide) of the same compound?
Answer: The Solubility was “readily soluble”.

Question: And the Solubility (Solubility; ethanol)?
Answer: The Solubility was “readily soluble”.

Question: And the Solubility (Solubility; ethyl acetate)?
Answer: The Solubility was “soluble”.

Question: And the Solubility (Solubility; methanol)?
Answer: The Solubility was “readily soluble”.

Question: What about the Solubility (Solubility; n-hexane) of the same compound?
Answer: Its Solubility is “sparingly soluble”.

Question: And the Solubility (Solubility; petroleum ether)?
Answer: Its Solubility is “sparingly soluble”.

Question: And the Solubility (Solubility; water)?
Answer: The Solubility was “insoluble”.
